Laboratory results as given in patent US9408866B2, “Method for detoxification or measurement of at least one compound or at least one fluid in a host body” (NIVA, priority 2012, dated 2016).
Marks after values point to notes of the source that are not given here.

Assays:
[1] = Contaminant masses in explanted silicone breast prostheses (acetone extraction, GC-MS); type: in vivo, human
Excerpt: Silicone prostheses were obtained following breast implant surgery during a period spanning from July 2010 to January 2012. Reasons for explanation ranged from severe capsular contracture to a wish for a change in prosthesis size.
Prostheses were collected during surgical explanation from patients and wrapped individually in clean aluminium foil and stored in labelled plastic bags.
As soon as possible after, samples were stored in a freezer. Samples were then transported on ice to the laboratory and stored at −20° C. until analysis. For this proof-of-concept study, 9 prostheses were extracted and analysed. […] Two prostheses were duplicates and their analysis aimed to investigate the reproducibility of the analytical steps as well as of the representativeness of the sampling (samples 2, 6, and 9 in Table 1). All prostheses were made of medical silicone gel enclosed in an outer silicone shell filled with gel with various degree of cohesiveness. Differences between prostheses from various producers include volume, type of silicone material, surface texture and thickness of the outer shell and cohesive degree of the filling gel. Prostheses were tinted and tinting from light yellow to orange appeared (from visual inspection only) dependent on exposure time. […]
Silicone prosthesis extraction were performed in batches of 10-12 samples and included a blank prosthesis (volume of 200-450 cm^3), a spiked prosthesis to assess extraction efficiency and a solvent blank to evaluate potential contamination during extraction and extract clean-up. Extraction of the whole prostheses was undertaken in pre-baked 2 L beakers kept in the dark to prevent photo degradation. Samples were brought to room temperature and the surface was rinsed with ultrapure water and dried with a clean tissue. Connective tissue capsule attached to the surface of prostheses were removed. Samples were extracted by soaking in 1 L of acetone for 24 hours. Acetone was chosen for its low capacity to swell the silicone matrix and because of the ease with which it can volatilise. Recovery standards for organochlorines, PCBs and PBDEs (including for BDE-209) were added to the acetone. It was expected that 24 hours is sufficient for chemicals (present in either phases) to partition between the solvent phase and the silicone prosthesis. The acetone was replaced by another 1 L of acetone and samples were extracted for a further 24 hours. The two volumes of acetone were combined and reduced under a gentle stream of nitrogen. Prostheses were weighed before and after solvent extraction to determine the total amount of silicone oils and other substances removed from the matrix during solvent extraction. A second set of internal standards was used to evaluate possible losses during the sample clean-up step. The solvent was changed to isohexane and sample clean-up consisted of repeated sulphuric acid treatment until no colouring of the extract could be observed. Extract were then passed through a silica-filled solid phase extraction column and eluted with dichloromethane or isohexane. Extracts were reduced to an adequate volume before analysis.
Analytes were separated on a 30 m-long DB-5MS column (0.25 mm i.d. and 0.25 μm film thickness, Agilent JW Scientific, Santa Clara, USA) following 1 μL pulsed splitless injection (pulse pressure 20 psi for 1.2 min, injector temperature of 300° C.). The helium gas flow was set to 1.2 mL min^−1 and the GC oven temperature programme consisted of a step at 60° C. (held for 2 min) before an increase to 250° C. (at the rate 7° C. min^−1) and a final increase to 310° C. (at the rate of 15° C. min^−1) with this temperature held constant for a further 5 min. Ion source, quadrupole and transfer line temperatures were set to 230, 150 and 280° C., respectively. Quantification was performed using the relative response of surrogate internal standards (CB-30, CB-53 and CB-204) and 7-point calibration curves. […]

[2] = seal lipids, taken from Jahnke et al. (2008); cited from earlier work
[3] = mean, Norwegian women (n = 20) age 25-59, Thomsen et al. (2007); cited from earlier work
[4] = milk from Norwegian women (n = 70), Thomsen et al. (2011); cited from earlier work
[5] = POP concentration in lipids estimated from concentrations measured in prostheses; type: in vivo, human; details: estimated from silicone prosthesis concentrations, silicone density of 1.0 and Klip-sil values
Experimental: The representativeness and suitability of POP concentrations measured in explanted silicone prostheses can be evaluated through comparison with literature data on POP levels measured in breast milk or blood serum from Norwegian women. Using seal oil lipid-to-silicone partition coefficients, Klip-sil for PCBs and DDTs, estimates of POP concentrations in lipids of participants of the present invention were calculated. This approach assumes that the influence of the type of silicone and of lipids on lipid-silicone partition coefficients is minor.

[6] = Sample 2, duplicate explanted prostheses analysed in the same batch

Brc1ccc(Oc2ccc(Br)cc2Br)cc1 [BDE-28]
Prosthesis contaminant mass, Mean [1, 6]: 0.5 ng sample^−1

Brc1ccc(Oc2ccc(Br)cc2Br)c(Br)c1 [BDE-47]
Prosthesis contaminant mass, Mean [1, 6]: 1.6 ng sample^−1

Brc1ccc(Oc2ccc(Br)c(Br)c2)cc1Br [BDE-77]
Prosthesis contaminant mass, Mean [1, 6]: 0.8 ng sample^−1

Brc1cc(Br)c(Oc2cc(Br)c(Br)cc2Br)cc1Br [BDE-153]
Prosthesis contaminant mass, Mean [1, 6]: 3.7 ng sample^−1

Brc1cc(Br)c(Oc2cc(Br)c(Br)cc2Br)c(Br)c1 [BDE-154]
Prosthesis contaminant mass, Mean [1, 6]: 0.5 ng sample^−1

Brc1c(Br)c(Br)c(Oc2c(Br)c(Br)c(Br)c(Br)c2Br)c(Br)c1Br [BDE-209]
Prosthesis contaminant mass, Mean [1, 6]: 6.5 ng sample^−1

Clc1ccc(Cl)c(-c2cc(Cl)ccc2Cl)c1 [CB-52]
Klip-sil (lipid-silicone partition coefficient) [2]: 19.2 g/g

Clc1ccc(Cl)c(-c2cc(Cl)c(Cl)cc2Cl)c1 [CB-101]
Measured Cserum [3]: 5.8 ng g^−1 lipid | Measured Cmilk (median with range in brackets) [4]: 6.4 (1.8-36)^f ng g^−1 lipid | Estimated Clipid [5]: 0.5 ng/g | Prosthesis contaminant mass, Mean [1, 6]: 7.6 ng sample^−1 | Klip-sil (lipid-silicone partition coefficient) [2]: 26.3 g/g

Clc1ccc(-c2ccc(Cl)c(Cl)c2Cl)cc1Cl [CB-105]
Measured Cmilk (median with range in brackets) [4]: 1.8 (0.89-3.2)^f ng g^−1 lipid | Estimated Clipid [5]: 1.5 ng/g | Prosthesis contaminant mass, Mean [1, 6]: 11 ng sample^−1 | Klip-sil (lipid-silicone partition coefficient) [2]: 35.4 g/g

Clc1ccc(-c2cc(Cl)c(Cl)cc2Cl)cc1Cl [CB-118]
Measured Cserum [3]: 8.0 ng g^−1 lipid | Measured Cmilk (median with range in brackets) [4]: 9.3 (4.0-15)^f ng g^−1 lipid | Estimated Clipid [5]: 7.5 ng/g | Prosthesis contaminant mass, Mean [1, 6]: 52 ng sample^−1 | Klip-sil (lipid-silicone partition coefficient) [2]: 35.2 g/g

Clc1cc(Cl)c(-c2ccc(Cl)c(Cl)c2Cl)cc1Cl [CB-138]
Measured Cserum [3]: 20 ng g^−1 lipid | Measured Cmilk (median with range in brackets) [4]: 16 (8-30)^f ng g^−1 lipid | Estimated Clipid [5]: 27 ng/g | Prosthesis contaminant mass, Mean [1, 6]: 123 ng sample^−1 | Klip-sil (lipid-silicone partition coefficient) [2]: 34.0 g/g

Clc1cc(Cl)c(-c2cc(Cl)c(Cl)cc2Cl)cc1Cl [CB-153]
Measured Cserum [3]: 43 ng g^−1 lipid | Measured Cmilk (median with range in brackets) [4]: 38 (20-68) ng g^−1 lipid | Estimated Clipid [5]: 62 ng/g | Prosthesis contaminant mass, Mean [1, 6]: 252 ng sample^−1 | Klip-sil (lipid-silicone partition coefficient) [2]: 38.1 g/g

Clc1ccc(-c2cc(Cl)c(Cl)c(Cl)c2Cl)cc1Cl [CB-156]
Measured Cmilk (median with range in brackets) [4]: 3.2 (1.5-5.9)^f ng g^−1 lipid | Estimated Clipid [5]: 4.5 ng/g | Prosthesis contaminant mass, Mean [1, 6]: 15 ng sample^−1 | Klip-sil (lipid-silicone partition coefficient) [2]: 50.8 g/g

Clc1cc(Cl)c(-c2cc(Cl)c(Cl)c(Cl)c2Cl)cc1Cl [CB-180]
Measured Cserum [3]: 34 ng g^−1 lipid | Measured Cmilk (median with range in brackets) [4]: 17 (8.5-32)^f ng g^−1 lipid | Estimated Clipid [5]: 4.2 ng/g | Prosthesis contaminant mass, Mean [1, 6]: 9.3 ng sample^−1 | Klip-sil (lipid-silicone partition coefficient) [2]: 49.4 g/g

Clc1c(Cl)c(Cl)c(Cl)c(Cl)c1Cl [HCB, hexachlorobenzene]
Estimated Clipid [5]: 10.9 ng/g | Prosthesis contaminant mass, Mean [1, 6]: 181 ng sample^−1

ClC(Cl)=C(Cl)c1c(Cl)c(Cl)c(Cl)c(Cl)c1Cl [OCS, octachlorostyrene]
Prosthesis contaminant mass, Mean ([1]; human, in vivo): 3.5 ng sample^−1

Clc1cc(Cl)c(Cl)c(Cl)c1Cl [PeCB, pentachlorobenzene]
Prosthesis contaminant mass, Mean [1, 6]: 5.6 ng sample^−1

Clc1ccc(C(c2ccccc2Cl)C(Cl)(Cl)Cl)cc1 (centres unmarked) [o,p′-DDT]
Estimated Clipid [5]: 0.8 ng/g | Klip-sil (lipid-silicone partition coefficient) [2]: 21.3 g/g

ClC(Cl)=C(c1ccc(Cl)cc1)c1ccc(Cl)cc1 [p,p′-DDE]
Prosthesis contaminant mass, Mean [1, 6]: 543 ng sample^−1

Clc1ccc(C(c2ccc(Cl)cc2)C(Cl)(Cl)Cl)cc1 [p,p′-DDT]
Estimated Clipid [5]: 5.7 ng/g | Prosthesis contaminant mass, Mean [1, 6]: 38 ng sample^−1 | Klip-sil (lipid-silicone partition coefficient) [2]: 50.7 g/g
